The assay deals with T1, 5-Lipoxygenase (Cavia porcellus, UniProt A0A286X958).
T1 construct: The PMNL suspension was disrupted by five ½-second pulse sonication; from tissue; host or cells: guinea pig peritoneal polymorphonuclear leukocytes (30,000 x g supernatant of the sonicate)
T1 sequence (A0A286X958 1-674): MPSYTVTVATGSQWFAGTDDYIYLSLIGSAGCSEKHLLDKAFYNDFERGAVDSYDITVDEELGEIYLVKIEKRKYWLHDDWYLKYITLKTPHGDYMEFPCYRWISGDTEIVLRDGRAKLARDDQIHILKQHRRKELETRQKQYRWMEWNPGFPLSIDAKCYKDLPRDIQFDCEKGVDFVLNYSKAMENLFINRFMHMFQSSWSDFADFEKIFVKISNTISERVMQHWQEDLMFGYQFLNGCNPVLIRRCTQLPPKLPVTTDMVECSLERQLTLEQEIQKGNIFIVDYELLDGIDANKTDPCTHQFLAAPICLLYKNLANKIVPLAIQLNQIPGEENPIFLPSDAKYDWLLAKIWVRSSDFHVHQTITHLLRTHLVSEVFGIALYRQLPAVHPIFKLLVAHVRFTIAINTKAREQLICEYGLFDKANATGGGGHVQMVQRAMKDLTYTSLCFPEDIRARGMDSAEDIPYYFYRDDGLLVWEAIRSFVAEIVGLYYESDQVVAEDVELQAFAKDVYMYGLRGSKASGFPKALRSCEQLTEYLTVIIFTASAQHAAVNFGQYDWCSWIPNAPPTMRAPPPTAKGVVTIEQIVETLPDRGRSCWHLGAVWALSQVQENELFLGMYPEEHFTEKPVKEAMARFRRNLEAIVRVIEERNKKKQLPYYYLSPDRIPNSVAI
The experiment in a line: 5-Lipoxygenase (5-LPO) Assay. The format is biochemical, guinea pigs. Conditions: inhibition of 5-HETE formation; supernatant of guinea pig PMNL sonicate; read-out: 5-LPO IC50 (µg/ml) (converted). How it is done:
Ten milliliters of a 2% casein solution were injected intraperitoneally to guinea pigs weighing 250-300 gm. After 16-18 hours, the guinea pigs were killed by suffocation in a carbon dioxide chamber. The peritoneal cavity was infused with 70 ml of saline and 40-50 ml of the fluid were recovered from the cavity. After centrifugation, cell pellets were washed twice in Hank's balanced salt solution (HBSS) without calcium ion.
The cells were then suspended in 5 ml of sodium phosphate buffer, pH 7.1 containing 1 mM EDTA, and 0.1% gelatin. About 20-30 x 10^7 cells were obtained from one guinea pig.
The PMNL suspension was disrupted by five ½-second pulse sonication at the setting of 3 in a Branson Sonifier, Model 350, equipped with a microtip. The sonicates were combined and centrifuged at 30,000 x g for 10 minutes. The supernatant was kept frozen at -70°C until use.
. Enzyme activity was determined by assaying for 5-HETE formatiun by first incubating 0.2 ml of the supernatant obtained from the PMNL sonicate with the test compound, 1 mM CaCl2, 2 mM ATP, and 1 mM GSH for 5 minutes at 37°C. The mixture is treated with 5 pM ^14C-arachidonic acid and incubated at 37°C an additional 10 minutes. The enzyme reaction was then stopped by the addition of 10 µl of 1M citric acid and 10 µl of an alcohol solution containing 20 mg/ml each of indomethacin and butylated hydroxyanisole (BHA). The reaction mixture was spotted (50 µl) on a silica gel plate (Baker TLC plate S1250-PA-19C) and subjected to TLC in a solvent system of ethyl acetate/2,2,4-tri- methylpentane/glacial acetic acid/H20 (90:50:20:100).
The radioactivity of the arachidonic acid and its metabolites (5-HETE and LTB4) was visualized from a developed x-ray film which had been exposed to the TLC plate 1-2 days. The amount of 5-HETE formed was quanti- tated by scraping the silica gel area corresponding to the spot on the x-ray film, and the radioactivity determined in a Isocap/300 liquid scintillation counter (Searle Analytic, Inc.).
The percent inhibition of the formation of 5-HETE was determined for each concentration of test compound tested as compared to a control experiment wherein no test compound was added. The concentration and percent inhibition values were plotted on semi log paper and the concentration in which formation of 5-HETE is inhibited by 50% (ICso) was determined by interpolation.

On to `O=C1C=C(CCCCCOc2ccccc2Cc2ccccc2)C(O)O1` (stereo not shown) [Example 18, 5-Hydroxy-4-[5-(2-benzylphenoxy)pentyl]-2(5H)-furanone], for which the IC50 was 28.4 µM.
`CC/C=C\C/C=C\C/C=C\C/C=C\C/C=C\C/C=C\CC1=CC(=O)OC1O` (stereo not shown) [Example 9, (Z,Z,Z,Z,Z,Z)-4-(2,5,8,11,14,17-eicosa-hexaenyl)-5-hydroxy-2(5H)-furanone]: the IC50 is 2.17 to 16.3 µM.
With `CCCCCCCC/C=C\CCCCCCC1=CC(=O)OC1O` (stereo not shown) [Example 11, (Z)-4-(7-hexadecenyl)-5-hydroxy-2(5H)-furanone], the IC50 is 1.24 µM.
`CCCCC/C=C\C/C=C\CCCCCCC1=CC(=O)OC1O` (stereo not shown) [Example 1, (Z,Z)-4-(7,10-hexadecadienyl)-5-hydroxy-2-(5H)-furanone]: the IC50 is 1.25 to 3.12 µM.
Consider `CC/C=C\C/C=C\C/C=C\CCCCCCC1=CC(=O)OC1O` (stereo not shown) [Example 2, (Z,Z,Z)-4-(7,10,13-hexadecatrienyl)-5-hydroxy-2(5H)-furanone], for which the IC50 is 0.471 to 1.88 µM.
For `O=C1C=C(CCCCOc2ccc3ccccc3c2)C(O)O1` (stereo not shown) [Example 12, 5-Hydroxy-4-[4-(2-naphthalenyloxy)butyl]-2(5H)-furanone] the value was 16.8 to 40.2 µM.
`CCCCC/C=C\C/C=C\C/C=C\C/C=C\CCC1=CC(=O)OC1O` (stereo not shown) [Example 3, (Z,Z,Z,Z)-5-hydroxy-4-(3,6,9,12-octa-decatetraenyl)-2(5H)-furanone]: the IC50 is 0.435 to 1.16 µM.
Regarding `CC(C)=CCCC(C)=CCCC(C)=CCCC1=CC(=O)OC1O` (stereo not shown) [Example 13, 5-Hydroxy-4-(4,8,12-trimethyl-3,7,11-tri-decatrienyl)-2(5H)-furanone], the IC50 was 25.1 µM.
Turning to `CC(C)=CCC/C(C)=C/CCC1=CC(=O)OC1O` (stereo not shown) [Example 14, (E,E)-4-(4,8-dimethyl-3,7-nonadienyl)-5-hydroxy-2(5H)-furanone], the IC50 was 24 µM.
The result for `CC(C)=CCCC(C)=CCCC(=CCCC1=CC(=O)OC1O)CO` (stereo not shown) [Example 19, 5-Hydroxy-4-[4-(hydroxymethyl)-8,12-dimethyl-3,7,11-tridecatrienyl]-2(5H)-furanone] reads 4.48 µM; that for `CCCCCCCC/C=C/CCCCCCC1=CC(=O)OC1O` (stereo not shown) [Example 4, (E)-4-(7-hexadecenyl)-5-hydroxy-2(5H)-furanone], around 3.1 µM; that for `CCCCC/C=C\C/C=C\C/C=C\CCCC1=CC(=O)OC1O` (stereo not shown) [Example 5, (Z,Z,Z)-4-(4,7,10-hexadecatrienyl)-5-hydroxy-2(5H)-furanone], 1.57 to 4.71 µM.
For `CC(C)=CCCC(C)=CCCC(C=O)=CCCC1=CC(=O)OC1O` (stereo not shown) [Example 15, 2-[3-(2,5-dihydro-2-hydroxy-5-oxo-3-furanyl)-propylidene]-6,10-dimethyl-5,9-undecadienal], the IC50 was 0.241 µM.

The values are drawn from patent publication EP0209274A2, “Furanone derivatives” (ELI LILLY AND COMPANY, priority 1985, dated 1987).
